Results from US20110184418A1, “Unsealed, Non-Colloidal Radiopharmaceutical Compositions and Methods for Treatment of Abnormal Tissue” (priority 2009, published 2011).

Test: Radioactive decay of the isotopes
Format: physicochemical
Conditions: at day 30, from half-life

SMILES | radioactive isotope expected to remain in the subject
[177Lu] [Lu-177, lutetium-177] | less than 6.25%
[166Ho] [Ho-166, holmium-166] | less than 0.20%
